Holding throughout (test): Antibacterial activity (MIC), Japan Society of Chemotherapy standard method
What all share (assay type): cell-based

The subject of one test is E. coli NIHJ. Here is the method:
(§1) Antibacterial activities of the compounds of the invention were measured in accordance with the standard method specified by the Japan Society of Chemotherapy, with the results shown in the following table as MIC values (μg/ml). In this connection, MIC values of levofloxacin (LVFX), ciprofloxacin (CPFX) and 5-amino-7-[3-(R)-[1-(S)-aminoethyl]pyrrolidin-1-yl]-6-fluoro-1-[2-(S)-fluoro-1-(R)-cyclopropyl]-8-methyl-1,4-dihydro-4-oxoquinoline-3-carboxylic acid (control drug 1) described in WO 9623782 are also shown for the sake of comparison with the MIC values of the compounds of the invention.

The subject of the next test is E. faecalis ATCC 19433. Here is the method:
as §1

In another test the test system is K. pneumoniae TYPE 1. Here is the method: as §1
The next test relates to Pr. Vulgaris O8601. Here is the method:
as §1

A further test concerns Ps. aeruginosa 32104. Here is the method: as §1
For the next test, the system named is Ps. aeruginosa 32121. Here is the method: as §1
The subject of another test is S. aureus 870307. Here is the method:
as §1

In a further test the test system is S. aureus FDA 209P. Here is the method: as §1
For a further test, the system named is S. epidermidis 56500. Here is the method: as §1
The next test concerns S. flexneri 2A 5503. Here is the method:
as §1

Another test concerns Ser. marcescens 10100. Here is the method:
as §1

A further test deals with Str. pneumoniae J24. Here is the method: as §1
In another test the test system is Str. pyrogenes G-36. Here is the method:
as §1

The next test deals with X. maltophilia IID 1275. Here is the method:
as §1

Setting [1] is: Escherichia coli, read-out: MIC.
The mark [2] stands for this setting: Pseudomonas aeruginosa, 32104, Ps. aeruginosa 32104, read-out: MIC.
Where [3] appears, read: Staphylococcus aureus, FDA209P, read-out: MIC.
[4] abbreviates: Staphylococcus epidermidis, read-out: MIC.
Where [5] appears, read: Shigella flexneri, 2A5503, S. flexneri 2A 5503, read-out: MIC.
[6] abbreviates: Serratia marcescens, 10100, Ser. marcescens 10100, read-out: MIC.
Setting [7] is: Streptococcus pneumoniae, J24, Str. pneumoniae J24, read-out: MIC.

≈ marks a conversion by molar mass, not a printed value. Where two headings read alike, the source gives them in different places. Bounds are passed on as bounds.

As a reminder, the MIC is the least concentration at which growth counts as inhibited. As for `Nc1c(F)c(N2CC[C@@H](C(N)c3ccc(F)cc3F)C2)c(F)c2c1c(=O)c(C(=O)O)cn2[C@@H]1C[C@@H]1F` (stereo partly drawn) [Example 10, 5-Amino-7-[3-(R)-(1Amino-1-(2,4-Difluoro) Phenylmethyl)-1-Pyrrolidinyl]-6,8-Difluoro-1-[2-(S)-Fluoro-1-(R)-Cyclopropyl]-1,4-Dihydro-4-Oxoquinoline-3-Carboxylic Acid], the minimum inhibitory concentration (MIC) result is “≦0.003 μg/ml” with E. coli NIHJ; 0.025 µg/mL (≈ 0.0492 µM) against E. faecalis ATCC 19433 (E. faecalis ATCC 19433); 0.013 µg/mL (≈ 0.0256 µM) against K. pneumoniae TYPE 1 (K. pneumoniae TYPE 1); 0.1 µg/mL (≈ 0.197 µM) against Pr. Vulgaris O8601; 0.2 µg/mL (≈ 0.393 µM) in the test on Ps. aeruginosa 32104 (Ps. aeruginosa 32104); 0.1 µg/mL (≈ 0.197 µM) against Ps. aeruginosa 32121 (Ps. aeruginosa 32121). Further, the MIC against S. aureus 870307 (S. aureus 870307) was 0.006 µg/mL (≈ 0.0118 µM); against S. aureus FDA 209P it was “≦0.003 μg/ml”; in the test with S. epidermidis 56500, “≦0.003 μg/ml”; in the test on S. flexneri 2A 5503 (S. flexneri 2A 5503) it was “≦0.003 μg/ml”; against Ser. marcescens 10100 (Ser. marcescens 10100) it was 0.1 µg/mL (≈ 0.197 µM); in the test on Str. pneumoniae J24 (Str. pneumoniae J24), “≦0.003 μg/ml”. Also, the results for the MIC entry against Str. pyrogenes G-36 and in the test on X. maltophilia IID 1275 (X. maltophilia IID 1275) were “≦0.003 μg/ml” and 0.05 µg/mL (≈ 0.0983 µM), respectively.

For the compound `Nc1c(F)c(N2CC[C@@H](C(N)c3ccccc3)C2)c(F)c2c1c(=O)c(C(=O)O)cn2[C@@H]1C[C@@H]1F` (single isomer, unassigned) [Example 1], the MIC in the test with E. coli NIHJ (setting [1]) is at most 0.003 µg/mL; in the test with E. faecalis ATCC 19433 (E. faecalis ATCC 19433), 0.05 µg/mL (≈ 0.106 µM); against K. pneumoniae TYPE 1 (K. pneumoniae TYPE 1), 0.05 µg/mL (≈ 0.106 µM); against Pr. Vulgaris O8601 it was 0.1 µg/mL (≈ 0.212 µM); with Ps. aeruginosa 32104 (setting [2]), 0.2 µg/mL (≈ 0.423 µM); against Ps. aeruginosa 32121 (Ps. aeruginosa 32121), 0.1 µg/mL (≈ 0.212 µM). Besides, the MIC was 0.025 µg/mL (≈ 0.0529 µM) in the test on S. aureus 870307 (S. aureus 870307); at most 0.003 µg/mL in the test on S. aureus FDA 209P (setting [3]); at most 0.003 µg/mL in the test with S. epidermidis 56500 (setting [4]); 0.006 µg/mL (≈ 0.0127 µM) in the test on S. flexneri 2A 5503 (setting [5]); 0.1 µg/mL (≈ 0.212 µM) in the test with Ser. marcescens 10100 (setting [6]); 0.006 µg/mL (≈ 0.0127 µM) in the test with Str. pneumoniae J24 (setting [7]). In addition, the MIC against Str. pyrogenes G-36 amounted to 0.013 µg/mL (≈ 0.0275 µM); in the test with X. maltophilia IID 1275 (X. maltophilia IID 1275) it was 0.1 µg/mL (≈ 0.212 µM).

`COc1c(N2CC[C@@H](C(N)c3ccccc3)C2)c(F)cc2c(=O)c(C(=O)O)cn([C@@H]3C[C@@H]3F)c12` (stereo partly drawn) [Example 3, 7-[3-(R)-(1-Amino-1-Phenylmethyl)-1-Pyrrolidinyl]-6-Fluoro-1-[2-(S)-Fluoro-1-(R)-Cyclopropyl]-1,4-Dihydro-8-Methoxy-4-Oxoquinoline-3-Carboxylic Acid]: the minimal inhibitory concentration (MIC) in the test with E. coli NIHJ (setting [1]) was at most 0.003 µg/mL; in the test with E. faecalis ATCC 19433 (Enterococcus faecalis, ATCC19433, E. faecalis ATCC 19433, read-out: MIC), 0.013 µg/mL (≈ 0.0277 µM); in the test with K. pneumoniae TYPE 1 (Klebsiella pneumoniae, TYPE1, K. pneumoniae TYPE 1, read-out: MIC), 0.025 µg/mL (≈ 0.0532 µM); with Pr. Vulgaris O8601 (Proteus vulgaris, read-out: MIC) it was 0.025 µg/mL (≈ 0.0532 µM); in the test with Ps. aeruginosa 32104 (setting [2]), 0.1 µg/mL (≈ 0.213 µM); with Ps. aeruginosa 32121 (Pseudomonas aeruginosa, 32121, Ps. aeruginosa 32121, read-out: MIC) it was 0.05 µg/mL (≈ 0.106 µM). The MIC in the test with S. aureus 870307 (Staphylococcus aureus, 870307, S. aureus 870307, read-out: MIC) was at most 0.003 µg/mL; with S. aureus FDA 209P (setting [3]), at most 0.003 µg/mL; in the test with S. epidermidis 56500 (setting [4]) it was at most 0.003 µg/mL; with S. flexneri 2A 5503 (setting [5]) it was at most 0.003 µg/mL; in the test on Ser. marcescens 10100 (setting [6]), 0.05 µg/mL (≈ 0.106 µM); in the test on Str. pneumoniae J24 (setting [7]), at most 0.003 µg/mL. Further, the MIC in the test on Str. pyrogenes G-36 (read-out: MIC) is at most 0.003 µg/mL; in the test with X. maltophilia IID 1275 (Stenotrophomonas maltophilia, IID1275, X. maltophilia IID 1275, read-out: MIC), 0.025 µg/mL (≈ 0.0532 µM).

As to `Nc1c(F)c(N2CC[C@@H](C(N)c3ccccc3)C2)c(F)c2c1c(=O)c(C(=O)O)cn2[C@@H]1C[C@@H]1F` (single isomer, unassigned) [Example 2], the MIC entry against E. coli NIHJ was “≦0.003 μg/ml”; in the test on E. faecalis ATCC 19433 (E. faecalis ATCC 19433), 0.006 µg/mL (≈ 0.0127 µM); against K. pneumoniae TYPE 1 (K. pneumoniae TYPE 1) it was 0.013 µg/mL (≈ 0.0275 µM); in the test on Pr. Vulgaris O8601, 0.025 µg/mL (≈ 0.0529 µM); against Ps. aeruginosa 32104 (Ps. aeruginosa 32104) it was 0.1 µg/mL (≈ 0.212 µM); with Ps. aeruginosa 32121 (Ps. aeruginosa 32121), 0.025 µg/mL (≈ 0.0529 µM). Besides, the minimum inhibitory concentration (MIC) entry is “≦0.003 μg/ml” in the test with S. aureus 870307 (S. aureus 870307); “≦0.003 μg/ml” in the test on S. aureus FDA 209P; “≦0.003 μg/ml” in the test on S. epidermidis 56500; “≦0.003 μg/ml” against S. flexneri 2A 5503 (S. flexneri 2A 5503); 0.05 µg/mL (≈ 0.106 µM) against Ser. marcescens 10100 (Ser. marcescens 10100); “≦0.003 μg/ml” in the test with Str. pneumoniae J24 (Str. pneumoniae J24). Also, the MIC entry in the test on Str. pyrogenes G-36 was “≦0.003 μg/ml”; in the test with X. maltophilia IID 1275 (X. maltophilia IID 1275), 0.025 µg/mL (≈ 0.0529 µM).
